From US12102630B2 (Synthon B.V., priority 2018, dated 2024)

Experiment: gel formation in contact with water / dissolution media
Assay type: physicochemical
Settings: solid forms
Text: The marketed product comprises lenvatinib mesylate. It is known that the lenvatinib mesylate salt gelifies when in contact with dissolution media, this may cause a delay in its release. EP1797881 discloses a pharmaceutical composition that solved the above problems using an alkaline excipient with a pH of 8 a 5% w/w aqueous solution to reduce the degradation of the active substance and silicic acid to inhibit gelation. Sodium carbonates are described as suitable alkaline excipient.
Gelification limits the dissolution of API and can influence bioavailability of the drug.

tendency to form a gel when in contact with water: don't tend to form a gel
Substance: lenvatinib besylate
